The text below walks through data of PMC6199744, “Development of Chemical Proteomics for the Folateome and Analysis of the Kinetoplastid Folateome” (ACS Infectious Diseases, 2018).

The structures appear in SMILES notation. Read-outs that look alike come from different tables or passages of the source.

Type in all cases: binding
The target in test [1] is T1, HeLa cell extract proteins (Homo sapiens, UniProt P62081).
T1 construct: endogenous in cells; host or cells: HeLa cell extract

The target in test [2] is T2, HeLa cell extract proteins (Homo sapiens, UniProt Q9UPU5).
T2 construct: endogenous in cells; host or cells: HeLa cell extract
T2 sequence (Q9UPU5 whole entry): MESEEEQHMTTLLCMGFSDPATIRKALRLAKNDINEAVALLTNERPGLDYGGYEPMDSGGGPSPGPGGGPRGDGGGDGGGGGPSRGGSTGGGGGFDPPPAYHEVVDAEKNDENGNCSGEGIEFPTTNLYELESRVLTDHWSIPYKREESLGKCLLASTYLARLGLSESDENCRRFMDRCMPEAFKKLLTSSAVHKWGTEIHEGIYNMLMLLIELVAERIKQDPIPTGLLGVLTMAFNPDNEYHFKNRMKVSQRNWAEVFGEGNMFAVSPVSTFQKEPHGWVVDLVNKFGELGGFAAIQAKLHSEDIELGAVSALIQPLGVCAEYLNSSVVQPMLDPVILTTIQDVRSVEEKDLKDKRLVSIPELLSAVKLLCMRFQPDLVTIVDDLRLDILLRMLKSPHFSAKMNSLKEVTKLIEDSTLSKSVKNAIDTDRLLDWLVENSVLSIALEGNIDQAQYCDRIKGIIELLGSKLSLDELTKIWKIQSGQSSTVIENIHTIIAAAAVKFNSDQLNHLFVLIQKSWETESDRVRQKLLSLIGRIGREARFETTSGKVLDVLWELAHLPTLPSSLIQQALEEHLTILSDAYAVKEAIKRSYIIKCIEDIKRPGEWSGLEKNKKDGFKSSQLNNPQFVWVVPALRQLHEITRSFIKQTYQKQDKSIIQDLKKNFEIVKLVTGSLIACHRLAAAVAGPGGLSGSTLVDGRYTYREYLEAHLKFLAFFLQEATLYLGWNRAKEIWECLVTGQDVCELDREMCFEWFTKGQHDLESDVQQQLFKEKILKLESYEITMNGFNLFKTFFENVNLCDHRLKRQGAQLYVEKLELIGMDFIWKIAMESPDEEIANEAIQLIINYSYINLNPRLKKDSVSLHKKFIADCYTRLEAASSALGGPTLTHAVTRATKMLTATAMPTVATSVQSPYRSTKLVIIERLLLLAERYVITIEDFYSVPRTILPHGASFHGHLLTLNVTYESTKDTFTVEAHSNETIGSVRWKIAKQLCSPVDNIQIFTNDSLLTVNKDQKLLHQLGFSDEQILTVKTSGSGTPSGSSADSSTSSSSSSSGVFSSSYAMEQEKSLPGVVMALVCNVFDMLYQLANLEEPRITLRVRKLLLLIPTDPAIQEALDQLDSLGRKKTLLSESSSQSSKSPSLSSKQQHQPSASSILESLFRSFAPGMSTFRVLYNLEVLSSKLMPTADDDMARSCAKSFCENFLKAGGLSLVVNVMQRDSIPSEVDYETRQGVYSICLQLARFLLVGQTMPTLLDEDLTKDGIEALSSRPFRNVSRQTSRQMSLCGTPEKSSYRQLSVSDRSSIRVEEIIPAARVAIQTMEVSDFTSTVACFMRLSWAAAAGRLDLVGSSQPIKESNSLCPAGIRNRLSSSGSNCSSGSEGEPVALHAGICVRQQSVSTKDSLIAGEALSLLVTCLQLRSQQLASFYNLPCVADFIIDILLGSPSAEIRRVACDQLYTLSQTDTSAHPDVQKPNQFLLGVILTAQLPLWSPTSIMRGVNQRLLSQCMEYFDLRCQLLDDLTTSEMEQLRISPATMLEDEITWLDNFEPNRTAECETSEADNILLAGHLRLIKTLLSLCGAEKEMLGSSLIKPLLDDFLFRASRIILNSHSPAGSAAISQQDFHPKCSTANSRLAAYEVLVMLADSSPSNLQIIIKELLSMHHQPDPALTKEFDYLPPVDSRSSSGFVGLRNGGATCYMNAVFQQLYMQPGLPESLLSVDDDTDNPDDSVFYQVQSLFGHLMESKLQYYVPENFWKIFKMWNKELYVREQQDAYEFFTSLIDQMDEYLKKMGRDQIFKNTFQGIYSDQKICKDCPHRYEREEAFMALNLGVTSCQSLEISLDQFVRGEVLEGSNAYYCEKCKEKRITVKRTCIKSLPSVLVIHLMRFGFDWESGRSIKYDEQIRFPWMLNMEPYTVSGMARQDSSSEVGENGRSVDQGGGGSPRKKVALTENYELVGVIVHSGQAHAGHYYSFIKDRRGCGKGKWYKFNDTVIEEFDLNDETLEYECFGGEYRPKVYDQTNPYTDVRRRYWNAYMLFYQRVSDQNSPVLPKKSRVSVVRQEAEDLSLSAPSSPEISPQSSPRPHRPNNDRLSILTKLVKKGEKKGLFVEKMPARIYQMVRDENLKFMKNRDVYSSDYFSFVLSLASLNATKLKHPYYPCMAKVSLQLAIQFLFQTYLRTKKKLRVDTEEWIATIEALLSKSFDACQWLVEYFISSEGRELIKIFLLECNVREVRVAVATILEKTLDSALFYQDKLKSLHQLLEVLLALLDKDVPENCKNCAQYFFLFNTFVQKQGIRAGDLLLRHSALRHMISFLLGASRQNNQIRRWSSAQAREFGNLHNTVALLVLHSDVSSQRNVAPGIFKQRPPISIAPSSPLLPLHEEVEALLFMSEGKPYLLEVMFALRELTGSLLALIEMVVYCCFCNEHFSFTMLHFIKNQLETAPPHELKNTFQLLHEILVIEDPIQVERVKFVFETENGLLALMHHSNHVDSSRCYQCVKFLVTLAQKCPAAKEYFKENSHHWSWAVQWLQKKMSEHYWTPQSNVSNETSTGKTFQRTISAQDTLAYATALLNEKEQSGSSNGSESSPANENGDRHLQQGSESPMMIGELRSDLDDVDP

Test [3] has as its target T3, HeLa cell extract proteins (Homo sapiens, UniProt P52888).
T3 construct: endogenous in cells; host or cells: HeLa cell extract

In test [4] the target is T4, HeLa cell extract proteins (Homo sapiens, UniProt O95848).
T4 construct: endogenous in cells; host or cells: HeLa cell extract
T4 sequence (O95848 1-222): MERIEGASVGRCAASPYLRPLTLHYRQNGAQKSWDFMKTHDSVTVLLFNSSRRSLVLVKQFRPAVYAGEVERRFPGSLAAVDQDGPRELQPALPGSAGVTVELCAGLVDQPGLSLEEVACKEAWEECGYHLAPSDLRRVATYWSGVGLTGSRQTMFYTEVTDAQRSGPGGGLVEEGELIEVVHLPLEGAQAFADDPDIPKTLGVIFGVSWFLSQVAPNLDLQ

For test [5], the target named is T5, HeLa cell extract proteins (Homo sapiens, UniProt Q9BTT0).
T5 construct: endogenous in cells; host or cells: HeLa cell extract
T5 sequence (Q9BTT0 whole entry): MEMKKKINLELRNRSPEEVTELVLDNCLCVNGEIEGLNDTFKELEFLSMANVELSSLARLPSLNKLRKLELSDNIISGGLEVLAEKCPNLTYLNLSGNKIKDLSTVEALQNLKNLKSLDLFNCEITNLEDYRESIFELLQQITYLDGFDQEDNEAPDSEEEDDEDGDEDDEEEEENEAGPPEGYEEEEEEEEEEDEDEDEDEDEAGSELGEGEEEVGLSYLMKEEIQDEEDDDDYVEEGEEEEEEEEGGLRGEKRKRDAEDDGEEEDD

The target in test [6] is T6, HeLa cell extract proteins (Homo sapiens, UniProt P13727).
T6 construct: endogenous in cells; host or cells: HeLa cell extract
T6 sequence (P13727 106-222): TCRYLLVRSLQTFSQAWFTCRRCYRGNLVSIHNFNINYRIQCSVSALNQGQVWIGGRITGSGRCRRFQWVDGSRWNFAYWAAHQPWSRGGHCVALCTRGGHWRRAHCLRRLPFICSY

Test [7] addresses T7, HeLa cell extract proteins (Homo sapiens, UniProt Q9UPT8).
T7 construct: endogenous in cells; host or cells: HeLa cell extract

The target of test [8] is T8, HeLa cell extract proteins (Homo sapiens, UniProt Q8NBJ5).
T8 construct: endogenous in cells; host or cells: HeLa cell extract

Test [9] deals with T9, HeLa cell extract proteins (Homo sapiens, UniProt Q13501).
T9 construct: endogenous in cells; host or cells: HeLa cell extract
T9 sequence (Q13501 whole entry): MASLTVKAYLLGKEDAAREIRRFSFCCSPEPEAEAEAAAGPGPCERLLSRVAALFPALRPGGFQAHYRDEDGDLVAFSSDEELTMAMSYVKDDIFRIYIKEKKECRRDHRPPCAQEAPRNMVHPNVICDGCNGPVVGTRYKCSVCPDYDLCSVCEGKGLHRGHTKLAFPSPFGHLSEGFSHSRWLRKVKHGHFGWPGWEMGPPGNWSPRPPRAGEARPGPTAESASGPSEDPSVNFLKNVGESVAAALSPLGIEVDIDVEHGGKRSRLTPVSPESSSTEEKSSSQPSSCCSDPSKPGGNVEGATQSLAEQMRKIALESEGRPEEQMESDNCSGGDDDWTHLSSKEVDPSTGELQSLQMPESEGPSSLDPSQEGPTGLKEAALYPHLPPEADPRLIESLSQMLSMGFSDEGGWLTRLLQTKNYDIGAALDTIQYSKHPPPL
The conditions noted are these: HeLa; protein SQSTM1.

Test [10] deals with T10, HeLa cell extract proteins (Homo sapiens, UniProt O43615).
T10 construct: endogenous in cells; host or cells: HeLa cell extract
T10 sequence (O43615 1-452): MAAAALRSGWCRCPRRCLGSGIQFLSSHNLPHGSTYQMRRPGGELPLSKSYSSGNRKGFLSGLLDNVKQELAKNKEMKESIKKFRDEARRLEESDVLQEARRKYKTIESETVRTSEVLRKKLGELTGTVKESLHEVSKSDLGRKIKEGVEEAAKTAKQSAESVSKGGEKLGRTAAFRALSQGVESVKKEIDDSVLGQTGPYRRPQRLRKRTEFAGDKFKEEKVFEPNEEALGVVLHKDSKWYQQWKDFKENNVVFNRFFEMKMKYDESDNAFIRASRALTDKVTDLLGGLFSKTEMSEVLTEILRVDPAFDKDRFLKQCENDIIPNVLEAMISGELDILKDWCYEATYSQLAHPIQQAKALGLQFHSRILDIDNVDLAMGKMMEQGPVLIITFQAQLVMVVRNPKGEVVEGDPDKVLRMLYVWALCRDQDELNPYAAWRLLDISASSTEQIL
The conditions noted are these: protein TIMM44; HeLa.

For test [11], the target named is T11, HeLa cell extract proteins (Homo sapiens, UniProt P36776).
T11 construct: endogenous in cells; host or cells: HeLa cell extract
T11 sequence (P36776 68-959): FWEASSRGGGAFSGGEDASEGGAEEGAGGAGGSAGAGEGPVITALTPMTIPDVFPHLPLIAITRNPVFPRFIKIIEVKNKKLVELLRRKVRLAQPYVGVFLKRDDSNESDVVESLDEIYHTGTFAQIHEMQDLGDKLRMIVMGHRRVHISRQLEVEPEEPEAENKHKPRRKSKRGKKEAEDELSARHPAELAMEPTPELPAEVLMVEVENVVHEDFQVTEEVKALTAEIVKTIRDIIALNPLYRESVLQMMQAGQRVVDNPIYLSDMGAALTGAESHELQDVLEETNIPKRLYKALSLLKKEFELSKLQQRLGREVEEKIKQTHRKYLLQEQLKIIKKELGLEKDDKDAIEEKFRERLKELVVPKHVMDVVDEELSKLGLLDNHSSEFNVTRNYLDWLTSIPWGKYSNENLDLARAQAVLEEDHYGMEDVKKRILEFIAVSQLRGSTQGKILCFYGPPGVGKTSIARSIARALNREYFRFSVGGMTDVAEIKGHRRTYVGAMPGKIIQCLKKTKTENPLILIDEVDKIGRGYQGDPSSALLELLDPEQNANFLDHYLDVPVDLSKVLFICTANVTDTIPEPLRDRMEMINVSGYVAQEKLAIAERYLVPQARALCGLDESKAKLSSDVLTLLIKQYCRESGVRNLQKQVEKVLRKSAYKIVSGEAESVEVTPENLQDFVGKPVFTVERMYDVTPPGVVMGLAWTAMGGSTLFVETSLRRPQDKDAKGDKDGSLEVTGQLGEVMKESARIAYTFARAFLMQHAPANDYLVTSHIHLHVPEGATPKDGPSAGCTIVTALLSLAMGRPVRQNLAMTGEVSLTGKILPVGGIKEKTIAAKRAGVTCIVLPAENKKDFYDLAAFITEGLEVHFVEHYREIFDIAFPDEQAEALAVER
The following applies: protein LONP1; HeLa.

The target in test [12] is T12, HeLa cell extract proteins (Homo sapiens, UniProt Q09666).
T12 construct: endogenous in cells; host or cells: HeLa cell extract
The conditions noted are these: HeLa; protein AHNAK.

Test [13] has as its target T13, HeLa cell extract proteins (Homo sapiens, UniProt Q15233).
T13 construct: endogenous in cells; host or cells: HeLa cell extract
T13 sequence (Q15233 1-471): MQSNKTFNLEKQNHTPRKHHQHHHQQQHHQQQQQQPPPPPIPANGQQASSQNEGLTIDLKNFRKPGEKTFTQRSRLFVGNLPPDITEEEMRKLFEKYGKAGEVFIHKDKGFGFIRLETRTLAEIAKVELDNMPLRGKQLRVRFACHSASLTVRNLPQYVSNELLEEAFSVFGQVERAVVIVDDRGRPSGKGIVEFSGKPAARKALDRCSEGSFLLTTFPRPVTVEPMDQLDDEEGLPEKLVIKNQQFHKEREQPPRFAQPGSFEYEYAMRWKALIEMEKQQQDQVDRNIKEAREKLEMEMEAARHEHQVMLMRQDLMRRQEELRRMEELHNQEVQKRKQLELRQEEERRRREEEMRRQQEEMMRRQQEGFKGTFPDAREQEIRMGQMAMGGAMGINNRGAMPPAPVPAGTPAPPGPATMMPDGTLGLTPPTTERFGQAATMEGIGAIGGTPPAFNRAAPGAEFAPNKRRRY
The conditions noted are these: protein NONO; HeLa.

T3 sequence (P52888 whole entry): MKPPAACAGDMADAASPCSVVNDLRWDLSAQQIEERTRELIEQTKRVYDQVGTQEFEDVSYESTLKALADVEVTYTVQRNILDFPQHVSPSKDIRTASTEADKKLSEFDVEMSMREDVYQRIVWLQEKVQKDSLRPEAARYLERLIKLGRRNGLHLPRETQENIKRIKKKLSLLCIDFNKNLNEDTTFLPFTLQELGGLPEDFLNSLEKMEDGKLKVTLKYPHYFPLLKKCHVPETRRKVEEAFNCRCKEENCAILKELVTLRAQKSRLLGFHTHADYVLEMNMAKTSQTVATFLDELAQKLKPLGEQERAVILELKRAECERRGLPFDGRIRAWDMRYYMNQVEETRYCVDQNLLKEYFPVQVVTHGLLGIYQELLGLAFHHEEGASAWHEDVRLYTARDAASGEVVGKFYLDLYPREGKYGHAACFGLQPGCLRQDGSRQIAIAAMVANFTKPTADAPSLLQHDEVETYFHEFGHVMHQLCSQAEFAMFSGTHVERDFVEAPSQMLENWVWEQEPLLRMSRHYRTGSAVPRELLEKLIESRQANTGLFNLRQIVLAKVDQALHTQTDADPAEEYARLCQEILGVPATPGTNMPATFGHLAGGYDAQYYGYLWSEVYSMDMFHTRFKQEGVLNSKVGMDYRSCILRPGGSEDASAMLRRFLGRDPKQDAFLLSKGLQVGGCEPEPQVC

On to `Nc1nc2c(c(=O)[nH]1)N(C=O)C(CNc1ccc(C(=O)N[C@@H](CCC(=O)O)C(=O)O)cc1)CN2` (some centres unmarked) [LEU, leucovorin], for which the “fold changes relative to vehicle control” value is given as 0.94 in [1] (HeLa, protein RPS7); 0.85 in test [2] (protein USP24, HeLa); 0.87 in [3] (protein THOP1, HeLa); 1.01 in test [4] (protein NUDT14, HeLa); 0.89 in test [5] (HeLa, protein ANP32E); 0.92 in test [6] (HeLa, captured protein PRG2). For the same compound, the “fold changes relative to vehicle control” value in test [7] (HeLa, protein ZC3H4) is on record as 0.99; in test [8] (HeLa, captured protein GLT25D1), 0.95.

Turning to `Nc1nc2[nH]cc(CCc3ccc(C(=O)N[C@@H](CCC(=O)O)C(=O)O)cc3)c2c(=O)[nH]1` [PTX, pemetrexed], the “fold changes relative to vehicle control” value is 0.92 in test [1]; 0.89 in test [2]; 0.95 in test [3]; 0.49 in test [4]; 0.76 in [5]; 0.86 in test [6]. For the same compound, the “fold changes relative to vehicle control” value is 1.06 in test [7] and 0.83 in test [8].

Turning to `CCCCCCOc1ccc(Cc2cnc(N)nc2N)cc1` [compound 1], the “fold changes relative to vehicle control” value in test [9] is 1.3; in test [10], 1.06; in test [11], 0.86; in [12], 0.88; in test [13], 0.97.

As for `CCCCCCOc1cccc(Cc2cnc(N)nc2N)c1` [compound 2], the “fold changes relative to vehicle control” value is on record as 0.96 in test [9]; 1.29 in test [10]; 1.41 in test [11]; 1.1 in [12]; 1.67 in test [13].

Take `Nc1nc2cccc(-c3ccccc3)c2n1Cc1ccc(Cl)c(Cl)c1` [compound 3]: the “fold changes relative to vehicle control” value stood at 1.2 in test [9]; 1.03 in [10]; 1.16 in [11]; 0.86 in [12]; 0.92 in test [13].

Turning to `NCCOCCOCC(=O)Nc1nc2ncc(CNc3ccc(C(=O)NC(CCC(=O)O)C(=O)O)cc3)nc2c(=O)[nH]1` (centres unmarked) [compound 6], the “fold changes relative to vehicle control” value is 1.06 in [1] (HeLa, protein RPS7); 1.01 in test [2] (protein USP24, HeLa); 1.16 in test [3] (protein THOP1, HeLa); 0.8 in test [4] (protein NUDT14, HeLa); 0.91 in test [5] (HeLa, protein ANP32E); 0.77 in test [6] (HeLa, captured protein PRG2). In addition, the “fold changes relative to vehicle control” value worked out at 1.1 in test [7] (HeLa, protein ZC3H4) and 0.93 in test [8] (HeLa, captured protein GLT25D1).

For `NCCCNc1ccc(C(=O)NC(CCC(=O)O)C(=O)O)cc1` (centres unmarked) [compound 7], the “fold changes relative to vehicle control” value is reported as 0.88 in test [1] (HeLa, protein RPS7); 0.84 in test [2] (protein USP24, HeLa); 0.83 in [3] (protein THOP1, HeLa); 0.97 in [4] (protein NUDT14, HeLa); 0.72 in test [5] (HeLa, protein ANP32E); 1.01 in test [6] (HeLa, captured protein PRG2). Moreover, the “fold changes relative to vehicle control” value in [7] (HeLa, protein ZC3H4) is given as 1.01; in test [8] (HeLa, captured protein GLT25D1), 0.97.
